In the first experiment the test system is BEN. In words: relative viability (nuclei count vs DMSO), 5 days (fraction); higher = more cells survive. As to conditions: first compound 2.53 µM. The procedure, abridged:
(§1)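 Relative viability equals treated-well nuclei counts divided by vehicle-well nuclei counts. Counts came from 4× images of lung cancer cell lines grown in 1536-well plates for 5 days after pin-tool dosing on the day after seeding. Dosing used one drug alone or a fixed anchor-drug dose plus five library-drug doses (not always all listed) in √10 steps, and values are medians of duplicate plates.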
Take `CCCCCCCCCCCC1=C(O)C(=O)C=C(O)C1=O` [Embelin] + Cc1nc(Nc2ncc(C(=O)Nc3c(C)cccc3Cl)s2)cc(N2CCN(CCO)CC2)n1 [Dasatinib] (partner 0.075 µM): the relative viability came out at 0.259.
On the same count and under the same terms, for `CCCCCCCCCCCC1=C(O)C(=O)C=C(O)C1=O` [Embelin] + CC(=O)c1c(C)c2cnc(Nc3ccc(N4CCNCC4)cn3)nc2n(C2CCCC2)c1=O [Palbociclib] (partner 0.5 µM) the value was 0.486; for `CCCCCCCCCCCC1=C(O)C(=O)C=C(O)C1=O` [Embelin] + COc1cccc2cc(-c3nc([C@H]4CC[C@H](C(=O)O)CC4)n4ncnc(N)c34)[nH]c12 [OSI-027] (partner 0.5 µM), 0.338.
For `CCCCCCCCCCCC1=C(O)C(=O)C=C(O)C1=O` [Embelin] + Nc1nc2[nH]cc(CCc3ccc(C(=O)N[C@@H](CCC(=O)O)C(=O)O)cc3)c2c(=O)[nH]1 [Pemetrexed] (partner 0.2 µM), the relative viability is 1.03.

Still in this experiment, the particulars now being: first compound 8 µM.
In turn, `CCCCCCCCCCCC1=C(O)C(=O)C=C(O)C1=O` [Embelin] + CCNC(=O)c1noc(-c2cc(C(C)C)c(O)cc2O)c1-c1ccc(CN2CCOCC2)cc1 [Luminespib] (partner 0.01 µM) showed a relative viability of 0.517.
On the same count and under the same terms, the value for `CCCCCCCCCCCC1=C(O)C(=O)C=C(O)C1=O` [Embelin] + Cc1nc(Nc2ncc(C(=O)Nc3c(C)cccc3Cl)s2)cc(N2CCN(CCO)CC2)n1 [Dasatinib] (partner 0.075 µM) was 0.362; that for `CCCCCCCCCCCC1=C(O)C(=O)C=C(O)C1=O` [Embelin] + CC(=O)c1c(C)c2cnc(Nc3ccc(N4CCNCC4)cn3)nc2n(C2CCCC2)c1=O [Palbociclib] (partner 0.5 µM) was 0.481.
Same read-out and setting: for `CCCCCCCCCCCC1=C(O)C(=O)C=C(O)C1=O` [Embelin] + COc1cccc2cc(-c3nc([C@H]4CC[C@H](C(=O)O)CC4)n4ncnc(N)c34)[nH]c12 [OSI-027] (partner 0.5 µM) the value was 0.289.
Molecule `CCCCCCCCCCCC1=C(O)C(=O)C=C(O)C1=O` [Embelin] + Nc1nc2[nH]cc(CCc3ccc(C(=O)N[C@@H](CCC(=O)O)C(=O)O)cc3)c2c(=O)[nH]1 [Pemetrexed] (partner 0.2 µM) yielded a relative viability of 0.731.

A further experiment has as its system UMC-11. The description is as above. As to conditions: first compound 0.08 µM. The procedure, abridged:
as §1
Regarding `CCCCCCCCCCCC1=C(O)C(=O)C=C(O)C1=O` [Embelin] + CCNC(=O)c1noc(-c2cc(C(C)C)c(O)cc2O)c1-c1ccc(CN2CCOCC2)cc1 [Luminespib] (partner 0.01 µM), the relative viability amounted to 1.1.
As for `CCCCCCCCCCCC1=C(O)C(=O)C=C(O)C1=O` [Embelin] + Cc1nc(Nc2ncc(C(=O)Nc3c(C)cccc3Cl)s2)cc(N2CCN(CCO)CC2)n1 [Dasatinib] (partner 0.075 µM), the relative viability turned out to be 0.45.
Molecule `CCCCCCCCCCCC1=C(O)C(=O)C=C(O)C1=O` [Embelin] + CC(=O)c1c(C)c2cnc(Nc3ccc(N4CCNCC4)cn3)nc2n(C2CCCC2)c1=O [Palbociclib] (partner 0.5 µM) gave a relative viability of 0.337.
For the molecule `CCCCCCCCCCCC1=C(O)C(=O)C=C(O)C1=O` [Embelin] + COc1cccc2cc(-c3nc([C@H]4CC[C@H](C(=O)O)CC4)n4ncnc(N)c34)[nH]c12 [OSI-027] (partner 0.5 µM), the relative viability worked out at 0.441.
The same measure, in the same setting: the value for `CCCCCCCCCCCC1=C(O)C(=O)C=C(O)C1=O` [Embelin] + Nc1nc2[nH]cc(CCc3ccc(C(=O)N[C@@H](CCC(=O)O)C(=O)O)cc3)c2c(=O)[nH]1 [Pemetrexed] (partner 0.2 µM) was 0.812.

Staying with this experiment, now noted: first compound 0.8 µM.
For `CCCCCCCCCCCC1=C(O)C(=O)C=C(O)C1=O` [Embelin] + CCNC(=O)c1noc(-c2cc(C(C)C)c(O)cc2O)c1-c1ccc(CN2CCOCC2)cc1 [Luminespib] (partner 0.01 µM), the relative viability is 1.15.
`CCCCCCCCCCCC1=C(O)C(=O)C=C(O)C1=O` [Embelin] + Cc1nc(Nc2ncc(C(=O)Nc3c(C)cccc3Cl)s2)cc(N2CCN(CCO)CC2)n1 [Dasatinib] (partner 0.075 µM): the relative viability was found to be 0.48.
Take `CCCCCCCCCCCC1=C(O)C(=O)C=C(O)C1=O` [Embelin] + CC(=O)c1c(C)c2cnc(Nc3ccc(N4CCNCC4)cn3)nc2n(C2CCCC2)c1=O [Palbociclib] (partner 0.5 µM): the relative viability was 0.36.
For the molecule `CCCCCCCCCCCC1=C(O)C(=O)C=C(O)C1=O` [Embelin] + COc1cccc2cc(-c3nc([C@H]4CC[C@H](C(=O)O)CC4)n4ncnc(N)c34)[nH]c12 [OSI-027] (partner 0.5 µM), the relative viability was 0.492.
`CCCCCCCCCCCC1=C(O)C(=O)C=C(O)C1=O` [Embelin] + Nc1nc2[nH]cc(CCc3ccc(C(=O)N[C@@H](CCC(=O)O)C(=O)O)cc3)c2c(=O)[nH]1 [Pemetrexed] (partner 0.2 µM) came in with a relative viability of 0.849.

The same experiment, now with this note: first compound 2.53 µM.
`CCCCCCCCCCCC1=C(O)C(=O)C=C(O)C1=O` [Embelin] + CCNC(=O)c1noc(-c2cc(C(C)C)c(O)cc2O)c1-c1ccc(CN2CCOCC2)cc1 [Luminespib] (partner 0.01 µM) returned a relative viability of 1.27.
`CCCCCCCCCCCC1=C(O)C(=O)C=C(O)C1=O` [Embelin] + Cc1nc(Nc2ncc(C(=O)Nc3c(C)cccc3Cl)s2)cc(N2CCN(CCO)CC2)n1 [Dasatinib] (partner 0.075 µM) yielded a relative viability of 0.519.
The same measure, in the same setting: the value for `CCCCCCCCCCCC1=C(O)C(=O)C=C(O)C1=O` [Embelin] + CC(=O)c1c(C)c2cnc(Nc3ccc(N4CCNCC4)cn3)nc2n(C2CCCC2)c1=O [Palbociclib] (partner 0.5 µM) was 0.323; that for `CCCCCCCCCCCC1=C(O)C(=O)C=C(O)C1=O` [Embelin] + COc1cccc2cc(-c3nc([C@H]4CC[C@H](C(=O)O)CC4)n4ncnc(N)c34)[nH]c12 [OSI-027] (partner 0.5 µM) was 0.511; that for `CCCCCCCCCCCC1=C(O)C(=O)C=C(O)C1=O` [Embelin] + Nc1nc2[nH]cc(CCc3ccc(C(=O)N[C@@H](CCC(=O)O)C(=O)O)cc3)c2c(=O)[nH]1 [Pemetrexed] (partner 0.2 µM) was 0.928.

Staying with this experiment, now noted: first compound 8 µM.
Molecule `CCCCCCCCCCCC1=C(O)C(=O)C=C(O)C1=O` [Embelin] + CCNC(=O)c1noc(-c2cc(C(C)C)c(O)cc2O)c1-c1ccc(CN2CCOCC2)cc1 [Luminespib] (partner 0.01 µM) registered a relative viability of 1.22.
On the same count and under the same terms, the value for `CCCCCCCCCCCC1=C(O)C(=O)C=C(O)C1=O` [Embelin] + Cc1nc(Nc2ncc(C(=O)Nc3c(C)cccc3Cl)s2)cc(N2CCN(CCO)CC2)n1 [Dasatinib] (partner 0.075 µM) was 0.437; that for `CCCCCCCCCCCC1=C(O)C(=O)C=C(O)C1=O` [Embelin] + CC(=O)c1c(C)c2cnc(Nc3ccc(N4CCNCC4)cn3)nc2n(C2CCCC2)c1=O [Palbociclib] (partner 0.5 µM) was 0.37; that for `CCCCCCCCCCCC1=C(O)C(=O)C=C(O)C1=O` [Embelin] + COc1cccc2cc(-c3nc([C@H]4CC[C@H](C(=O)O)CC4)n4ncnc(N)c34)[nH]c12 [OSI-027] (partner 0.5 µM) was 0.51.
Consider `CCCCCCCCCCCC1=C(O)C(=O)C=C(O)C1=O` [Embelin] + Nc1nc2[nH]cc(CCc3ccc(C(=O)N[C@@H](CCC(=O)O)C(=O)O)cc3)c2c(=O)[nH]1 [Pemetrexed] (partner 0.2 µM), for which the relative viability amounted to 0.806.

For a further experiment, the system named is RERF-LC-KJ. The description is as above. To be noted: first compound 0.08 µM. The essentials:
as §1
With `CCCCCCCCCCCC1=C(O)C(=O)C=C(O)C1=O` [Embelin] + CCNC(=O)c1noc(-c2cc(C(C)C)c(O)cc2O)c1-c1ccc(CN2CCOCC2)cc1 [Luminespib] (partner 0.01 µM), the relative viability came out at 1.05.
As to `CCCCCCCCCCCC1=C(O)C(=O)C=C(O)C1=O` [Embelin] + Cc1nc(Nc2ncc(C(=O)Nc3c(C)cccc3Cl)s2)cc(N2CCN(CCO)CC2)n1 [Dasatinib] (partner 0.075 µM), the relative viability worked out at 0.82.

For the origin of these results see the supplement of paper PMC10307832.
